{
  "source": "patent US20110280855A1",
  "about": "“VITAMIN C COMPOSITIONS” (priority 2006, published 2011)",
  "origin": "cited, not measured here",
  "key": {"[1]": {"tested_on": "murine neuroblastoma as well as melanoma cell lines", "conditions": "in vitro; dependent on the source of tumor cells"}, "[2]": {"tested_on": "Normal lung tissue of mice", "conditions": "normal lung tissue of mice upon treatment"}},
  "data": [
    {"smiles": "O=C(O)CCCCC1CCSS1", "note": "(stereo not drawn) [alpha-lipoic acid]", "values": [
      {"measurement": "increase of GSH content compared to untreated controls", "setting": "[1]", "value": "30-70%"},
      {"measurement": "increase in glutathione", "setting": "[2]", "value": "about 50%"}
    ]}
  ]
}
